Numbers after ± are expanded uncertainties.
How the values were obtained:
[1] = Molar enthalpy of transition or fusion; settings: Crystal; DSC
[2] = Crystal

With `CCOC(=O)Cc1c(C(=O)OCC)sc(N)c1C#N` the “Molar enthalpy of transition or fusion” value [1] was 9.77 ± 0.263 kcal/mol, the mass density ([2]; 298.15 K, 101.33 kPa, flotation method) was 1297 ± 2 kg/m3 and the Normal melting temperature ([2]; DTA) was 136.90 ± 1.1 °C.

Reference: the NIST ThermoML archive (doi:10.1016/j.jct.2015.11.025)
